Measured values published in patent publication US20100022559A1, “BISOXIMES AS FUNGICIDES” (BAYER CROPSCIENCE AG, priority 2006, published 2010).
Each block holds one compound with its values, some of them ahead of it.

Test: logP determination by HPLC on a reversed-phase column (C 18), EEC Directive 79/831 Annex V.A8
Type: physicochemical
Description: The stated logP values were determined in accordance with EEC Directive 79/831 Annex V.A8 by HPLC (high performance liquid chromatography) on a reversed-phase column (C 18). Temperature: 43° C.

[1] = method marker [b], isomer A / isomer B / isomer mixture as noted in the cell
[2] = method marker [a] (footnote not shown), isomer A / isomer B / isomer mixture as noted in the cell

- logP (method marked [a] in Table 1): 7.36^[a]
SMILES: COc1ccc(-c2cccc(C(C)=NOCC(C)(C)CON=C(C)c3cccc(-c4ccc(OC)cc4)n3)n2)cc1 [compound 579]

- logP (method marked [b] in Table 1): 3.13^[b]
SMILES: CC(=NOc1ncnc(ON=C(C)c2cccc(C)n2)c1F)c1cccc(C)n1 [compound 727]

- logP (method marked [b] in Table 1): 1.22[b]
- logP (method marked [c] in Table 1): 3.68^[c]
SMILES: CC(=NOCC(O)CON=C(C)c1cc(C)cc(C)n1)c1cc(C)cc(C)n1 (stereo not drawn) [compound 560]

- logP (method marked [b] in Table 1): 4.49^[b]
SMILES: Cc1cccc(C(=NOCC(C)CON=C(c2cccc(C)n2)c2cccs2)c2cccs2)n1 (stereo not drawn) [compound 673]

- logP (value marked [b]): 3.85^[b]
- logP (value marked [c]): 5.82^[c]
SMILES: CCOC(=O)C(C)(CON=C(C)c1ccc(C)c(C)n1)CON=C(C)c1ccc(C)c(C)n1 (stereo not drawn) [compound 854]

- logP (method marked [b] in Table 1): 7.36^[b]
- logP (method marked [c] in Table 1): 7.36^[c]
SMILES: C=C(CON=C(C)c1ccc2ccc(C)cc2n1)CON=C(C)c1ccc2ccc(C)cc2n1 [compound 749]

- logP (method marked [b] in Table 1): 3.13^[b]
SMILES: N/C(=N\OC/C=C/CO/N=C(\N)c1nc(C2CC2)cc(C2CC2)n1)c1nc(C2CC2)cc(C2CC2)n1 [compound 722]

- logP (value marked [b]): 4.91^b](isomer A)
SMILES: CC(=NOCCCCCCON=C(c1cccc(C)n1)C(C)C)c1cccc(C)n1 (single isomer, unassigned) [compound 526]

- logP (method marked [b] in Table 1): 4.46^[b] (isomer B)
SMILES: C=C(CON=C(C)c1cccc(C)n1)CON=C(CCC)c1ncccc1C (single isomer, unassigned) [compound 535]

- logP (value marked [a]): 7.36^[a]
SMILES: CC(=NOC1CCC(ON=C(C)c2cccc(C3CC3)n2)C1)c1cccc(C2CC2)n1 (mixture of isomers) [compound 813]

- logP (value marked [b]): 1.99^[b]
- logP (value marked [c]): 2.97^[c]
SMILES: CC(=NOCC1(CON=C(C)c2cccc(C)n2)COC(=O)N1)c1cccc(C)n1 (stereo not drawn) [compound 856]

- logP (value marked [b]): 1.96^[b]
- logP (value marked [c]): 3.70^[c]
SMILES: CC(=NOCC1(CON=C(C)c2ccc(C)c(C)n2)COC(=O)N1)c1ccc(C)c(C)n1 (stereo not drawn) [compound 857]

Second part, the compound before the results:

SMILES: Cc1cc(C)nc(/C(N)=N/OCCCCO/N=C(\N)c2nc(C)cc(C)n2)n1 [compound 4]
- logP [1]: 1.73^[b]

SMILES: CCCc1nc(C(C)=NOCC(C)CON=C(C)c2ccc(C)c(CCC)n2)ccc1C (stereo not drawn) [Compound 550]
- logP (method marked [c] in Table 1): 7.36^[c]

SMILES: C=C(CON=C(C)c1cccc(C)n1)CON=C(C)c1cccc(C(C)C)n1 [compound 479]
- logP (value marked [b]): 5.78^[b]

SMILES: C=C(CON=C(C)c1cccc(Br)n1)CON=C(C)c1cccc(Br)n1 [compound 150]
- logP [1]: 5.96^[b]

SMILES: CC(=NOC/C=C\CON=C(C)c1ccccn1)c1ccccn1 [Compound 541]
- logP (method marked [b] in Table 1): 3.04^[b]

SMILES: C=C(CO/N=C(\N)c1csc(C)n1)CO/N=C(\N)c1csc(C)n1 [Compound 27]
- logP [1]: 3.19^[b]

SMILES: CC(=NOCC(C)CON=C(C)c1cccc(C)n1)c1cncc(C)c1 (stereo not drawn) [compound 431]
- logP (value marked [b]): 2.37^[b]

SMILES: CC(=NOCC(C)CON=C(C)c1cccc(CC(C)C)n1)c1cccc(C)n1 (stereo not drawn) [Compound 423]
- logP (value marked [b]): 6.51^[b]

SMILES: CC(=NOCC(C)CON=C(C)c1cc(C)n(C)n1)c1cc(C)n(C)n1 (mixture of isomers) [compound 261]
- logP (value marked [a]): 3.09^[a]

SMILES: CC(=NOCC(C)CON=C(C)c1cccc(C)n1)c1cccc(C)n1 (stereo not drawn) [Compound 1]
- logP [2]: 2.31^[a]
- logP (method marker [c] (footnote not shown)): 5.44^[c]

SMILES: COCc1cc(C)nc(C(C)=NOCC(C)CON=C(C)c2cc(COC)cc(C)n2)c1 (stereo not drawn) [Compound 871]
- logP (value marked [b]): 4.06^[b]
- logP (value marked [c]): 5.57^[c]

SMILES: CC(=NOCCCCCCON=C(Cc1ccccc1)c1ncccc1C)c1cccc(C)n1 [compound 339]
- logP (value marked [b]): 5.90^[b] (isomer B)

SMILES: CC(=NOC[Si](C)(CON=C(C)c1ccc(C)c(C)n1)C(C)C)c1ccc(C)c(C)n1 [Compound 837]
- logP (value marked [a]): 6.76^[a]
- logP (value marked [b]): 6.76^[b]
- logP (value marked [c]): 7.36^[c]

SMILES: C=C(CON=C(C)c1cccn1C)CON=C(C)c1cccn1C [compound 21]
- logP [1]: 5.03^[b]

SMILES: C=C(CON=C(C)c1cccc(C)n1)CON=C(C)c1ncccc1C (single isomer, unassigned) [Compound 203]
- logP [1]: 3.03^[b] (isomer A)

SMILES: C/C(=N\OCC(C)CON)c1cc(C)cc(C)n1 (racemic) [XII-9]
- logP ([a] acidic range, pH 2.3, 0.1% aqueous phosphoric acid and acetonitrile): 0.49^[a]
- logP ([b] LC-MS, acidic range, pH 2.7, 0.1% aqueous formic acid and acetonitrile): 0.49^[b]

SMILES: CC(=NOCCCCCCON=C(C)c1cccc(Cc2ccccc2)n1)c1cccc(C)n1 [compound 340]
- logP (value marked [b]): 6.86^[b]

SMILES: CC(=NOCC(C)(C)CON=C(CC(C)C)c1ncccc1C)c1cccc(C)n1 [compound 366]
- logP (value marked [b]): 5.97^[b]

SMILES: CC(=NOC[Si](C)(C)CON=C(C)c1cccc(C)n1)c1cccc(C)n1 [Compound 292]
- logP (value marked [a]): 4.50^[a]

SMILES: COc1ccc(C(C)=NOCC(C)(C)CON=C(C)c2cc3ccccc3o2)cc1OC [compound 415]
- logP (value marked [b]): 5.42^[b]

SMILES: C=C(CON=C(C)c1cccc(C)n1)CON=C(C)c1nc(C)cc(C)n1 [Compound 188]
- logP [1]: 2.69^[b]

SMILES: CC(=NOCC(C)(O)CON=C(C)c1ccccn1)c1ccccn1 (stereo not drawn) [compound 2]
- logP [2]: 1.73^[a]

SMILES: CC(=NOCCCCON=C(C)c1cccc(C)n1)c1cccnc1 [compound 384]
- logP (value marked [b]): 2.18^[b]
